Results reported in ChEMBL document CHEMBL3507680, “University of Dundee, Gates Library screen for HepG2 cell viability”.

Assay: Human HepG2 cell viability assay in 384 well format
Type: toxicity, cell-based
Parameters: dose 125 nL, time 70.5 hour; concentration not given beside the values
Conditions: HepG2 cells, read-out: Inhibition

| Structure (SMILES) | cytotoxicity at 70.5 h |
| --- | --- |
| O=C(CCn1cnc2cc(F)c(F)cc21)N1CCN(C2CC2)CC1 | -5.93% |
| Cn1c(CN2CCCC(N3CCNC3=O)C2)cc(=O)n(C)c1=O (stereo not drawn) | 26.4% |
| Cn1c(CN2CCCC(N3CCCCCC3)C2)cc(=O)n(C)c1=O (stereo not drawn) | -4.65% |
| COc1ccc(OC)c(CN2CCN(Cc3cscn3)CC2)c1 | -5.74% |
| Cc1cnn(CC(C)Nc2cnc3ccccc3n2)c1 (stereo not drawn) | 4.57% |
| CCC(=O)NCC(=O)NC(C)c1ccc(OCCC(C)C)cc1 (stereo not drawn) | -2.78% |
| CC(C)OCCC(=O)NCC(O)c1c(F)cccc1F (stereo not drawn) | -6.84% |
| Cc1ccc(S(=O)(=O)N2CCOCC2C#N)c(F)c1 (stereo not drawn) | 2.28% |
| CN1CC(NC(=O)Nc2cnn(-c3ccccc3Cl)c2)CCC1=O (stereo not drawn) | -3.58% |
| O=C(COc1ccc2c(c1)OCC2O)NCc1ccco1 (stereo not drawn) | -0.449% |
| COc1ccccc1CNC(=O)COc1ccc2c(c1)OCC2O (stereo not drawn) | -5.21% |
| COC(=O)CN(C(=O)c1cccc(F)c1Cl)c1cccc(C)n1 | 1.83% |
| COC(=O)CN(C(=O)c1cc(C)c(F)cc1F)c1cccc(C)n1 | -5.14% |
| CCC(c1ccccc1)N1CCN(CCO)CC1 (stereo not drawn) | -6.76% |
| Cc1ccc(CN(C)C(=O)CCn2c(=O)n(C)c3ccccc32)o1 | -6.04% |
| COC(=O)CN(C(=O)C(C)c1c(F)cccc1F)c1cccc(C)n1 (stereo not drawn) | -4.95% |
| CCCn1c(=O)n(CCC(=O)N(C)Cc2ccc(C)o2)c2ccccc21 | -4.98% |
| CC(C)c1nn(C)c(N(C)C)c1CNC1CCCOc2ccccc21 (stereo not drawn) | 31.4% |
| CCN(CC(C)C#N)C(=O)CNc1cc(Cl)ccc1C(N)=O (stereo not drawn) | 3.41% |
| O=C(NCC1CC1)c1ccc(NC(=O)c2ccco2)cc1 | -5.31% |
| COc1ccccc1CCNS(=O)(=O)N1CCOCC1 | -11.8% |
| O=C(c1cc2c(s1)CCC2)N1CCN(c2cnccn2)CC1 | -14.9% |
| CC1CN(C(=O)Nc2cc(C(F)(F)F)c[nH]c2=O)CC(C)(C)O1 (stereo not drawn) | -8.86% |
| COC(=O)c1ccc(NC(C)c2ccc3c(c2)CC(=O)N3)nn1 (stereo not drawn) | -10.3% |

| Structure (SMILES) | cytotoxicity at 70.5 h |
| --- | --- |
| CCc1ccc(S(=O)(=O)N2CCCn3ncnc32)s1 | -3.85% |
| O=S(=O)(c1ccc(Cl)s1)N1CCCn2ncnc21 | -1.11% |
| CCS(=O)(=O)CCSc1ccc(Br)cc1 | -6.15% |
| CCc1nc(C2CCCN(c3nccc(N4CCCC4)n3)C2)no1 (stereo not drawn) | -0.206% |
| CN(C)C(=O)c1cccc(CCNS(=O)(=O)c2ccccc2)c1 | -1.77% |
| CCOc1ccc(Cl)cc1CCNC(=O)N1CCCC(CO)C1 (stereo not drawn) | -7.21% |
| CCn1nc(C)cc1C(=O)OCCNC(=O)c1ccccc1 | -0.786% |
| COc1c(CNCc2ccccc2-n2ccnc2)c(C)nn1C | 8.51% |
| CCOc1cc(Cl)ccc1CNC(=O)N1CCCC(CO)C1 (stereo not drawn) | -9.17% |
| COc1c(CNCc2ccccc2Cn2cccn2)c(C)nn1C | -5.48% |
| COCCn1cc(C(=O)N2CCCC2c2cccs2)c2ccccc21 (stereo not drawn) | 7.25% |
| Cc1cc(CC(=O)NCC(O)COc2ccc(F)c(F)c2)n[nH]1 (stereo not drawn) | 17.8% |
| Cc1nnc(C(C)Nc2ccc(OCCc3ccccc3)nc2)o1 (stereo not drawn) | 0.291% |
| CN(C)c1ccc(C(=O)N2CCCC2c2ccc(Cl)cc2)cc1 (stereo not drawn) | -4.22% |
| CC(C)c1noc(CCC(=O)N2CCN(C)CC2c2ccccc2)n1 (stereo not drawn) | -9.08% |
| CCC(C)(CNC(=O)Nc1nccs1)N1CCOCC1 (stereo not drawn) | -8.6% |
| Cc1noc(CCCC(=O)N2CCN(C)CC2c2ccccc2)n1 (stereo not drawn) | 29.2% |
| CC(C)c1noc(CCCC(=O)N2CCN(C)CC2c2ccccc2)n1 (stereo not drawn) | -8.67% |
| CC(NC(=O)N1CCc2ccccc21)c1nncn1C (stereo not drawn) | -12.2% |
| CC(=O)N(C)CC(=O)NC1(c2ccc(Cl)c(Cl)c2)CC1 | -10% |
| N#Cc1ccc(CN2CCCN(C(=O)CCn3cncn3)CC2)cc1 | -10.9% |
| COc1cc2c(cc1OC)CN(C(=O)NC(C)c1nncn1C)CC2 (stereo not drawn) | 26.1% |
| O=C(c1ccc(-n2ccnc2)nc1)N1CCN2CCCCC2C1 (stereo not drawn) | -10.4% |
| Cc1cc(C)cc(N(C)S(=O)(=O)c2cc3c(c(C(=O)O)c2)OCCO3)c1 | -12.8% |

| Structure (SMILES) | cytotoxicity at 70.5 h |
| --- | --- |
| CN(C)c1ccc(C(=O)N2CCCC2c2cnn(C)c2)nn1 (stereo not drawn) | -11.7% |
| CN(c1ccccc1)S(=O)(=O)c1cc2c(c(C(=O)O)c1)OCCO2 | -9.42% |
| Cc1ccccc1CS(=O)(=O)c1nnc(N2CCOCC2)s1 | 8.66% |
| CNC(=O)c1cccnc1N1CCN(C/C=C/c2ccccc2)CC1 | 6.62% |
| COc1cc(C(C)NCc2c[nH]nc2C)ccc1OCCO (stereo not drawn) | 7.95% |
| CC(=O)NCCCSC1CCN(c2ccccc2Cl)C1=O (stereo not drawn) | -10.2% |
| Cn1cc(C(=O)CC2CCCN2C(=O)c2ccc(Cl)o2)cn1 (stereo not drawn) | 2.73% |
| Cn1cc(C(=O)CC2CCCN2C(=O)c2ccc(Cl)cn2)cn1 (stereo not drawn) | -8.95% |
| CCc1nc(C2CCCN(C(=O)C3=NN(C(C)C)C(=O)CC3)C2)no1 (stereo not drawn) | -13.3% |
| CCN1N=C(C(=O)N2CCCC(c3noc(C)n3)C2)CCC1=O (stereo not drawn) | 22.2% |
| COc1cc(C(=O)N2CCCC2CC(=O)c2cnn(C)c2)ccc1F (stereo not drawn) | 8.93% |
| CCCc1n[nH]c(C2CN(Cc3ncc[nH]3)CCO2)n1 (stereo not drawn) | 4.94% |
| N#Cc1cn(CCCN2CCc3ccccc32)c(=O)[nH]c1=O | 21.5% |
| O=C(Cn1cc(Cl)cn1)Nc1ccc2c(c1)OCO2 | -2% |
| O=C(NC1CC1)C1CCCN(c2cccc(C(F)(F)F)n2)C1 (stereo not drawn) | -5.01% |
| CC(C(=O)N1CCN(C(=O)c2ccc(F)cc2F)CC1)n1ccnc1 (stereo not drawn) | -4.77% |
| O=C(CN1CCS(=O)(=O)CC1)NC1CCCCc2ccccc21 (stereo not drawn) | -1.09% |
| CCc1cc(=O)[nH]c(-c2ccc(NCCc3ccc(O)cc3)nc2)n1 | -3.24% |
| Cn1c(C2CC2)nc2cc(NC(=O)C3(O)CCCC3)ccc21 | -4.26% |
| Cc1c(NCc2ccc(C#N)cc2)cccc1S(=O)(=O)NC1CC1 | 1.12% |
| Cc1c(NCc2cccc(C#N)c2)cccc1S(=O)(=O)NC1CC1 | 4.95% |
| CC(CS(C)(=O)=O)N(C(=O)CCc1ccsc1)C1CC1 (stereo not drawn) | -4.58% |
| C1CCC(CSc2nnnn2C2CC2)OC1 (stereo not drawn) | -0.703% |
| Cc1ccc(C(=O)N2CCN(C(=O)C(C)n3ccnc3)CC2)cc1F (stereo not drawn) | -5.92% |

| Structure (SMILES) | cytotoxicity at 70.5 h |
| --- | --- |
| CN(C(=O)CCC(F)(F)F)c1cccc2ncccc12 | 42.6% |
| Cc1ccc(C(=O)NCc2ccc(N(C)C)cc2)cn1 | -10.4% |
| Cc1ccccc1CS(=O)(=O)Cc1nc(C2CC2)no1 | -3.39% |
| O=C(Cc1ccc2c(c1)CCO2)Nc1cccnc1-n1cncn1 | 16.3% |
| COc1ccc(N(C)C(=O)c2ccc(Cl)c(S(C)(=O)=O)c2)cn1 | -2.77% |
| O=C(NCCN1CCOCC1)c1ccc(OCc2ccccc2)nc1 | -1.05% |
| Cc1cccc(NC(=O)CN(C)C(=O)c2ccc(OC(C)C)nc2)n1 | -2.88% |
| O=C(Nc1ccc(Cl)cn1)C1CCCN(Cc2ccccn2)C1 (stereo not drawn) | -1.12% |
| CCc1noc(CS(=O)(=O)Cc2ccccc2C)n1 | 15% |
| CCc1noc(CS(=O)(=O)Cc2nc(Cc3ccccc3)no2)n1 | -5.38% |
| Cc1ccc(C(=O)N(C)CC(=O)Nc2cccc(C)n2)cn1 | -6.04% |
| Cc1nn(C)c(C)c1NC(=O)CN1CCCC1c1noc(C(C)C)n1 (stereo not drawn) | -5% |
| CCOc1ccc(NC(C)C(=O)NCCc2cccs2)cc1CO (stereo not drawn) | -3.5% |
| COc1c(C2CCCN2C(=O)c2ccoc2C)c(C)nn1C (stereo not drawn) | 7.26% |
| CC(NC(=O)CCCOc1cccc(F)c1)c1ccncc1 (stereo not drawn) | -4.8% |
| CCn1ccnc1CN1CCN(Cc2cnc(C)cn2)CC1C (stereo not drawn) | 4.47% |
| O=C(NCCCOCc1ccco1)c1cccnc1N1CCOCC1 | 6.19% |
| CCn1ccnc1CN1CCN(CCCS(C)(=O)=O)CC1C (stereo not drawn) | 12.1% |
| Cc1cc(C)n(CC2CN(Cc3cccc(C#N)c3)CCO2)n1 (stereo not drawn) | -3.79% |
| NC(=O)c1ccc(CN2CCCC(N3CCCCCC3)C2)cc1 (stereo not drawn) | 1.67% |
| CCOc1ncccc1C(=O)N1CCCC(n2nc(C)cc2C)C1 (stereo not drawn) | -5.39% |
| Cc1cnn(CC2CCCN2C(=O)Cn2nc(C)c(Cl)c2C)c1 (stereo not drawn) | -1.94% |
| Cc1cc(C)cc(NC(=O)CC2CN(Cc3ccccc3)CCO2)c1 (stereo not drawn) | -4.17% |
| Cc1nc(C)n(C2CCCN(C(=O)CCn3ccnn3)C2)n1 (stereo not drawn) | 0.306% |

| Structure (SMILES) | cytotoxicity at 70.5 h |
| --- | --- |
| CCC1(CNC(=O)NC(c2nnc3n2CCC3)C(C)C)CCC1 (stereo not drawn) | 35.2% |
| CNC(=O)N1CCCCC1c1nnc2n1CCCC2 (stereo not drawn) | -0.585% |
| O=C(CC1CN(Cc2ccccc2)CCO1)Nc1ccsc1 (stereo not drawn) | 8.64% |
| Cc1n[nH]c(C)c1CNC(=O)N1CCCC(Cc2nccn2C)C1 (stereo not drawn) | 0.74% |
| CN(C)CC1CN(c2ncnc3ccsc23)CCO1 (stereo not drawn) | 8.47% |
| CNc1cc(N2CCCC2CNCc2cccc(C#N)c2)ncn1 (stereo not drawn) | 1.28% |
| Cc1ncsc1CNc1cccc(OCCN2CCCC2)c1 | 1.28% |
| Cc1ccc(C2CN(C(=O)c3c(C)cc(C)[nH]c3=O)CCO2)c(C)c1 (stereo not drawn) | 9.82% |
| O=C(NCCSCc1ccc(Br)s1)C1CCCN(c2cnccn2)C1 (stereo not drawn) | 10.7% |
| CCCc1nc(C)c(C(=O)NC2CCN(CC(N)=O)CC2)s1 | -11.5% |
| CC(NCc1ccccn1)c1cc2c(cc1Br)OCCO2 (stereo not drawn) | -4.31% |
| O=C(NS(=O)(=O)Cc1ccc(F)cc1)C1CCc2ccccc21 (stereo not drawn) | 3.78% |
| CCc1ncc2c(n1)CN(Cc1nc3c(F)cccc3[nH]1)CC2 | -5.3% |
| COc1cc(CNCCNC(=O)c2ccc(O)cc2)ccc1SC | 55.5% |
| O=C(NCCc1ccccc1Cl)NCC1(O)CCSC1 (stereo not drawn) | 3.74% |
| O=C(NCc1ccc(Cl)cc1Cl)NCC1(O)CCSC1 (stereo not drawn) | 18.5% |
| CC(C)c1nnc(CNc2ccc(SC(F)(F)F)cc2)o1 | 36.9% |
| COc1ccnc(NC(=O)c2cnccn2)c1 | -7.62% |
| O=C(c1ccc(=O)[nH]n1)N1CCc2ccccc21 | -0.117% |
| CCCc1noc(CN(C)Cc2ccc3c(c2)OCO3)n1 | 17.8% |
| COc1c(C(=O)N2CCOC(c3cccs3)C2)c(C)nn1C (stereo not drawn) | -5.91% |
| COc1ccc(C(C)NCc2c[nH]nc2C)cc1OC (stereo not drawn) | -8.7% |
